The record followed here is patent publication US20220152031A1, “PYRIDAZINONES AND METHODS OF USE THEREOF” (Goldfinch Bio, Inc., priority 2019, published 2022).

The target in the assay is T1, TRPC5 (Homo sapiens, UniProt Q9UL62).
T1 construct: expressed in transfected cells
T1 sequence (Q9UL62 1-973): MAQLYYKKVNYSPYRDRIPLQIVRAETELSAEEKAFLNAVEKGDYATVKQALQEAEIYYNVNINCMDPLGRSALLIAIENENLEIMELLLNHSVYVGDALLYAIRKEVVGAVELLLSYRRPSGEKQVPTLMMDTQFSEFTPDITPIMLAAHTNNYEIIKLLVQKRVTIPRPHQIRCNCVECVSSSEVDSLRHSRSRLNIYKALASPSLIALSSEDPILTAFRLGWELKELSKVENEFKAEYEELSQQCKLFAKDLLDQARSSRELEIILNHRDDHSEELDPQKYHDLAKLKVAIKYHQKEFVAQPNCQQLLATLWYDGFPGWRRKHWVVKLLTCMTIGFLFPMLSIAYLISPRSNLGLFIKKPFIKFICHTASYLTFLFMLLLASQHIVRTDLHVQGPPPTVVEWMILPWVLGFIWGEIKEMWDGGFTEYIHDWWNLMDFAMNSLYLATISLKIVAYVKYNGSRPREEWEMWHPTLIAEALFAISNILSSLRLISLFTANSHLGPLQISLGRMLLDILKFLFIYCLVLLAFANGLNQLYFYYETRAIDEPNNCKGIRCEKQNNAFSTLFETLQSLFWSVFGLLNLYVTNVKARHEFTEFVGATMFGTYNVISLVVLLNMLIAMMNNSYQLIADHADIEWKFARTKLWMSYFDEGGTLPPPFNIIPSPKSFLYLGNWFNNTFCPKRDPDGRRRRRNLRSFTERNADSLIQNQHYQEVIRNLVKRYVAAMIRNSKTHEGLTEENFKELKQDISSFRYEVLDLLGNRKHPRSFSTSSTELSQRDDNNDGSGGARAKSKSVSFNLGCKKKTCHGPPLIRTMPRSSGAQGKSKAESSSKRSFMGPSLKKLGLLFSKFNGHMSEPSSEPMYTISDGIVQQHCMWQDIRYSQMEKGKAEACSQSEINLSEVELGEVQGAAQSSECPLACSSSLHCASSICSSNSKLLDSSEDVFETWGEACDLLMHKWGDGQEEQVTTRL
Kind of assay: TRPC5 activity assay (FLIPR calcium fluorescence, HEK-TREx hTRPC5 cells). It counts as cell-based. To be noted: HEK-TREx hTRPC5 cells, FLIPR, 30 μM Riluzole stimulation; read-out: TRPC5. As for the experimental part: ICLN-1633 cells (HEK-TREx hTRPC5) expressing TRPC5 were generated as follows. Commercially available HekTrex-293 cells were seeded at 0.7×10^6 cells/well in a 1×6-well plate 24 hrs prior to transfection using 2 mL cell growth media containing no antibiotics (lx DMEM/high glucose (Hyclone #SH30022.02); 10% fetal bovine serum (Sigma) 2 mM sodium pyruvate, 10 mM HEPES). […] On day 2, 2 μg of plasmid DNA plus 6 μl of Xtreme-GENE HP reagent in Optimem (200 μl total volume) was prepared and incubated for 15 min at room temperature. This plasmid solution was then gently overlayed dropwise onto each well and the plate was gently swirled to mix complex with the media for approximately 30 seconds. Transfected cells were incubated at 37° C. in a 10% CO2 incubator for 24 hrs. The transfected cells were harvested and transferred into 2×150 mm dishes containing cell growth media with no antibiotics at 37° C.
The next day selection was initiated to generate a stable pool by adding cell growth media containing 150 μg/mL Hygromycin and 5 μg/mL Blasticidin and cells were allowed to grow. Media with the selection agent was changed every 1-2 days as needed to remove dead cells. After 7 days, the hygromycin concentration was reduced to 75 μg/mL and cells growth was allowed to continue.
Single clones were selected as follows. The stable pool was diluted to 10 cells/mL and seeded (100 μl/well) into 24×96 well plates (˜1 cell/well) and allowed to grow for 7 days in cell growth media. Fresh media (100 μl) was added and the cells allowed to grow for another 1-2 weeks and then stored frozen or used immediately.
10-point dose response curves were generated using the Echo-550 acoustic dispenser. Compound source plates were made by serially diluting compound stocks to create 10 mM, 1 mM, and 0.1 mM solutions in DMSO into Echo certified LDV plates. The Echo then serially spotted 100% DMSO stock solutions into source dose response plates to generate a 4-fold dilution scheme. 100% DMSO was added to the spotted dose response plates to bring the final volume to 5 μl. 300 nl of the dose response stock plate was then spotted into pre-incubation and stimulation assay plates. 50 μl of pre-incubation buffer and 100 μl of stimulation buffer was then added to the plates resulting in a final assay test concentration range of 30 μM to 0.0001 μM with a final DMSO concentration of 0.3%.
Human ICLN-1633 cells expressing were plated onto 384 well, black PDL-coated microplates and maintained in TRPC5 growth media the day prior to use for experiments. TRPC5 expression was induced by the application of 1 μg/mL tetracycline at the time of plating. […] Cells are incubated at room temperature, protected from light, for 60-90 minutes. After the incubation period, the dye is removed and replaced with 10 μl of EBSS. Cell, pre-incubation and stimulation plates are loaded onto the FLIPR-II and the assay is initiated. The FLIPR measures a 10 second baseline and then adds 10 μl of 2× compounds (or controls). Changes in fluorescence are monitored for an additional 5 minutes. After the 5 minute pre-incubation, 20 μl of 2× Riluzole (with 1× compound or controls) is added to the cell plate. The final Riluzole stimulation concentration in the assay is 30 μM. After the Riluzole addition, changes in fluorescence are monitored for an additional 5 minutes.
Compound modulation of TRPC5 calcium response was determined as follows. After the Englerin A, fluorescence was monitored for a 5-minute period. The maximum relative fluorescence response (minus the control response of 1 μM of an internal control compound known to maximally block TRPC5 calcium response, the “REF INHIB” in the formula below) was captured and exported from the FLIPR.
Compound effect is calculated as % inhibition using the following formula: […]
wherein “RFU” is the relative fluorescent units.

pIC50: −log10 of the molar value. A value given as a limit tells only on which side of the number the result lay.

For the compound `Nc1nc2c(c(Oc3ccccc3Cl)n1)CCN(c1cn[nH]c(=O)c1Cl)C2` [Compound 113], the pIC50 was over 7.30.

On to `O=c1[nH]ncc(N2CCc3c(nc(CO)nc3Oc3ccc(F)cc3Cl)C2)c1Cl` [Compound 114], for which the pIC50 is over 7.30.

Turning to `Nc1nc2c(c(Oc3ccc(F)cc3C(F)(F)F)n1)CCN(c1cn[nH]c(=O)c1Cl)C2` [Compound 116], the pIC50 is over 7.30.

On to `O=c1[nH]ncc(N2CCc3c(nc(CO)nc3Oc3ccc(F)cc3C(F)F)C2)c1Cl` [Compound 134, 4-chloro-5-[4-[2-(difluoromethyl)-4-fluorophenoxy]-2-(hydroxymethyl)-5H,6H,7H,8H-pyrido[3,4-d]pyrimidin-7-yl]-2,3-dihydropyridazin-3-one], for which the pIC50 is over 7.30.

For the compound `C[C@@H]1CCN(Cc2ccccc2)C[C@@H]1N(C)c1ncnc2c1CCN(c1cn[nH]c(=O)c1Cl)C2` [Compound 133, 5-(4-[[(3R,4R)-1-Benzyl-4-methylpiperidin-3-yl](methyl)amino]-5H,6H,7H,8H-pyrido[3,4-d]pyrimidin-7-yl)-4-chloro-2,3-dihydropyridazin-3-one], the pIC50 is 6.30 to 7.30.

In the case of `Nc1nc2c(c(Oc3ccc(F)cc3Cl)n1)CCN(c1cn[nH]c(=O)c1Cl)C2` [Compound 112, 5-[2-amino-4-(2-chloro-4-fluorophenoxy)-5H,6H,7H,8H-pyrido[3,4-d]pyrimidin-7-yl]-4-chloro-2,3-dihydropyridazin-3-one], the pIC50 is over 7.30.

`O=c1[nH]ncc(N2CCc3c(ncnc3Oc3ccc(F)cc3C(F)F)C2)c1Cl` [Compound 105]: the pIC50 is over 7.30.

Take `CN(c1cnccc1C(F)(F)F)c1ncnc2c1CCN(c1cn[nH]c(=O)c1Cl)C2` [Compound 131, 4-chloro-5-(4-[methyl[4-(trifluoromethyl)pyridin-3-yl]amino]-5H,6H,7H,8H-pyrido[3,4-d]pyrimidin-7-yl)-2,3-dihydropyridazin-3-one]: the pIC50 was over 7.30.

As for `C[C@H]1CCN(Cc2ccccc2)C[C@H]1N(C)c1ncnc2c1CCN(c1cn[nH]c(=O)c1Cl)C2` [Compound 133a], the pIC50 was 6.00 to 6.30.

As for `C[C@@H](O)c1nc2c(c(Oc3ccccc3C(F)(F)F)n1)CCN(c1cn[nH]c(=O)c1Cl)C2` (single isomer, unassigned) [Compound 122], the pIC50 was over 7.30.

Consider `Cc1cc(F)ccc1Oc1ncnc2c1CCN(c1cn[nH]c(=O)c1Cl)C2` [Compound 124], for which the pIC50 is over 7.30.

For `O=c1[nH]ncc(N2CCc3c(ncnc3Oc3c(F)cccc3C(F)(F)F)C2)c1Cl` [Compound 121], the pIC50 is over 7.30.

With `O=c1[nH]ncc(N2CCc3c(nc(CO)nc3Oc3ccccc3C(F)(F)F)C2)c1Cl` [Compound 128], the pIC50 was over 7.30.
